# Experiments:
# [1] = Inhibition of SARS-CoV-2 3c-like protease; design: species or system Severe acute respiratory syndrome coronavirus 2
# [2] = Inhibition of SARS-CoV 3C-like protease (9970 to 10887 residues) expressed in Escherichia coli BL21(DE3) CodonPlus-RIL cells using Dabcyl-KTSAVLQSGFRKME-Edans fluorogenic peptide as substrate measured up to 60 mins by FRET method; design: species or system Severe acute respiratory syndrome-related coronavirus
# [3] = Inhibition of His-tagged SARS-CoV 3c-like protease using Abz-SVTLQSG-Tyr(NO2)R as substrate by fluorometric assay; design: species or system Severe acute respiratory syndrome-related coronavirus
# [4] = Inhibition of SARS-CoV-2 3c-like protease expressed in Escherichia coli by FRET-based cleavage assay; design: species or system Severe acute respiratory syndrome coronavirus 2
# [5] = Inhibition of SARS-CoV 3C-like protease (3241 to 3546 residues) expressed in Pichia pastoris GS115 using Dabcyl-KTSAVLQSGFRKME-Edans fluorogenic peptide as substrate measured for 18 mins by fluorescence method; design: species or system Severe acute respiratory syndrome-related coronavirus
# [6] = Inhibition of SARS-CoV 3C-like protease (3241 to 3546 residues) expressed in Pichia pastoris GS115 using Dabcyl-KTSAVLQSGFRKME-Edans fluorogenic peptide as substrate measured for 18 mins by Lineweaver-burk plot based Dixon plot analysis; design: species or system Severe acute respiratory syndrome-related coronavirus
structure (smiles),measurement,setting,value
Oc1cc(O)cc(Oc2c(O)cc(O)c3c2Oc2c(O)cc(Oc4c(O)cc(O)cc4O)cc2O3)c1,IC50,[1],42.1 µM
C/C(=C\Cc1c(O)ccc(C(=O)/C=C/c2ccc(O)cc2)c1O)CCC(O)C(C)C (stereo unspecified),IC50,[2],22.2 µM
CCC(Cc1c(OC)ccc(C(=O)/C=C/c2ccc(O)cc2)c1O)OO (stereo unspecified),IC50,[2],11.4 µM
CC(=O)N[C@H](C(=O)N[C@H](C(=O)N[C@@H](CC(C)C)C(=O)N[C@@H](C[C@@H]1CCNC1=O)C(=O)Cn1[nH]c(=O)c2c([N+](=O)[O-])cccc2c1=O)[C@@H](C)OCc1ccccc1)C(C)C,IC50,[3],0.6 µM
Oc1cc(O)c(Oc2cc(O)cc(O)c2Oc2cc(-c3c(O)cc(O)cc3O)c(O)cc2O)c(O)c1,IC50,[1],22.5 µM
O=C[C@H](C[C@@H]1CCNC1=O)NC(=O)[C@H](Cc1cccc(F)c1)NC(=O)c1cc2ccccc2[nH]1,IC50,[4],0.04 µM
CC(=O)N[C@H](C(=O)N[C@H](C(=O)N[C@@H](CC(C)C)C(=O)N[C@@H](C[C@@H]1CCNC1=O)C(=O)Cn1[nH]c(=O)c2ccccc2c1=O)[C@@H](C)OCc1ccccc1)C(C)C,IC50,[3],2.7 µM
Oc1cc(O)cc(Oc2c(Oc3c(O)cc(O)cc3O)cc(O)c3c2Oc2c(O)cc(O)cc2O3)c1 [2-PHLOROECKOL],IC50,[1],13.3 µM
Oc1cc(O)cc(Oc2c(O)cc(O)c3c2Oc2c(O)cc(Oc4c(O)cc(Oc5c(O)cc(O)c6c5Oc5c(O)cc(O)cc5O6)cc4O)cc2O3)c1 [DIECKOL],IC50,[1],2.7 µM
Oc1cc(O)cc(Oc2c(O)cc(O)c3c2Oc2c(O)cc(O)cc2O3)c1 [ECKOL],IC50,[1],8.8 µM
O=C(O[C@@H]1Cc2c(O)cc(O)cc2O[C@@H]1c1cc(O)c(O)c(O)c1)c1cc(O)c(O)c(O)c1 [EPIGALOCATECHIN GALLATE],IC50,[5],73 µM
O=C(O[C@@H]1Cc2c(O)cc(O)cc2O[C@H]1c1cc(O)c(O)c(O)c1)c1cc(O)c(O)c(O)c1 [GALLOCATECHIN GALLATE],Ki,[6],25 µM
same,IC50,[5],47 µM
Oc1cc(O)cc(Oc2c(O)cc(O)c3c2Oc2c(O)cc4oc5c(Oc6cc(O)cc(O)c6)c(O)cc(O)c5c4c2O3)c1 [PHLOROFUCOFUROECKOL A],IC50,[1],16.7 µM
O=c1c(O)c(-c2ccc(O)c(O)c2)oc2cc(O)cc(O)c12 [QUERCETIN],IC50,[5],73 µM
COc1ccc(C(=O)/C=C/c2ccc(O)cc2)c(O)c1C/C=C(\C)CCC=C(C)C [XANTHOANGELOL F],IC50,[2],34.1 µM

# — ChEMBL document CHEMBL4706535, “The development of Coronavirus 3C-Like protease (3CL) inhibitors from 2010 to 2020” (Eur J Med Chem, 2020)
